Laboratory results taken from patent US9296741B2, “Bromodomain inhibitors” (priority 2012, dated 2016).

Legend:
[1] = Mouse liver microsome stability assay; type: in vitro ADME
[2] = Rat liver microsome stability assay; type: in vitro ADME; details: rat liver microsomes (male Sprague-Dawley), 0.5 μM test compound, 0.25 mg/mL microsomal protein, pH 7.4, 37° C.; read-out: Stability in rat liver microsomes (t1/2 in minutes)
[3] = molecular target: human BRD4 second bromodomain (BDII_E352-M457) (Homo sapiens (Human), UniProt O60885); test: TR-FRET bromodomain binding assay, BRD4 second bromodomain
[4] = Human liver microsome stability assay; type: in vitro ADME; details: both sexes
[5] = molecular target: human BRD4 first bromodomain (BDI_K57-E168) (Homo sapiens (Human), UniProt O60885); test: TR-FRET bromodomain binding assay, BRD4 first bromodomain
[6] = male, CD1, mouse, microsomes, pH 7.4

## Cn1cc(-c2ccccc2-c2ccccc2)c2cc[nH]c2c1=O [Example 196, 4-(biphenyl-2-yl)-6-methyl-1,6-dihydro-7H-pyrrolo[2,3-c]pyridin-7-one]
[1]; [6]
  half-life at 0.5 μM: 3 min
[2]
  half-life at 0.5 μM: 5 min
[3]
  Ki: 0.479 µM
[4]; human, microsomes, pH 7.4
  half-life at 0.5 μM: 59 min
[5]
  Ki: 9.5 µM

## CN(C)CCNC(=O)c1ccc(Oc2ccc(F)cc2F)c(-c2cn(C)c(=O)c3[nH]ccc23)c1 [Example 131, 4-(2,4-difluorophenoxy)-N-[2-(dimethylamino)ethyl]-3-(6-methyl-7-oxo-6,7-dihydro-1H-pyrrolo[2,3-c]pyridin-4-yl)benzamide]
[1]; [6]
  half-life at 0.5 μM: 83 min
[2]
  half-life at 0.5 μM: 71 min
[3]
  Ki: 0.06 µM
[4]; human, microsomes, pH 7.4
  half-life at 0.5 μM: > 120 min
[5]
  Ki: 0.0986 µM

## CC(C)c1ccc(Oc2ccc(S(C)(=O)=O)cc2-c2cn(C)c(=O)c3[nH]ccc23)cc1 [Example 192, 6-methyl-4-{5-(methylsulfonyl)-2-[4-(propan-2-yl)phenoxy]phenyl}-1,6-dihydro-7H-pyrrolo[2,3-c]pyridin-7-one]
[1]; [6]
  half-life at 0.5 μM: 3 min
[2]
  half-life at 0.5 μM: 5 min
[3]
  Ki: 0.0096 µM
[4]; human, microsomes, pH 7.4
  half-life at 0.5 μM: 9 min
[5]
  Ki: 0.0513 µM

## Cn1cc(-c2cc(C(=O)NCc3ccc(OC(F)(F)F)cc3)ccc2Oc2ccc(F)cc2F)c2cc[nH]c2c1=O [Example 126, 4-(2,4-difluorophenoxy)-3-(6-methyl-7-oxo-6,7-dihydro-1H-pyrrolo[2,3-c]pyridin-4-yl)-N-[4-(trifluoromethoxy)benzyl]benzamide]
[1]; [6]
  half-life at 0.5 μM: 25 min
[2]
  half-life at 0.5 μM: 21 min
[3]
  Ki: 0.768 µM
[4]; human, microsomes, pH 7.4
  half-life at 0.5 μM: 100 min
[5]
  Ki: 2 µM

## Cn1cc(-c2cc(C(=O)N3CCN(C(=O)N4CCCC4)CC3)ccc2Oc2ccc(F)cc2F)c2cc[nH]c2c1=O [Example 119, 4-[2-(2,4-difluorophenoxy)-5-{[4-(pyrrolidin-1-ylcarbonyl)piperazin-1-yl]carbonyl}phenyl]-6-methyl-1,6-dihydro-7H-pyrrolo[2,3-c]pyridin-7-one]
[1]; [6]
  half-life at 0.5 μM: 2 min
[2]
  half-life at 0.5 μM: 24 min
[3]
  Ki: 0.0225 µM
[4]; human, microsomes, pH 7.4
  half-life at 0.5 μM: 14 min
[5]
  Ki: 0.0444 µM

## CN(C)c1ccc(NC(=O)c2ccc(Oc3ccc(F)cc3F)c(-c3cn(C)c(=O)c4[nH]ccc34)c2)cc1 [Example 120, 4-(2,4-difluorophenoxy)-N-[4-(dimethylamino)phenyl]-3-(6-methyl-7-oxo-6,7-dihydro-1H-pyrrolo[2,3-c]pyridin-4-yl)benzamide]
[1]; [6]
  half-life at 0.5 μM: 10 min
[2]
  half-life at 0.5 μM: 12 min
[3]
  Ki: 0.304 µM
[4]; human, microsomes, pH 7.4
  half-life at 0.5 μM: 19 min
[5]
  Ki: 0.19 µM

## Cn1cc(-c2cc(C(=O)NCc3cccnc3)ccc2Oc2ccc(F)cc2F)c2cc[nH]c2c1=O [Example 128, 4-(2,4-difluorophenoxy)-3-(6-methyl-7-oxo-6,7-dihydro-1H-pyrrolo[2,3-c]pyridin-4-yl)-N-(pyridin-3-ylmethyl)benzamide]
[1]; [6]
  half-life at 0.5 μM: 4 min
[2]
  half-life at 0.5 μM: 21 min
[3]
  Ki: 0.112 µM
[4]; human, microsomes, pH 7.4
  half-life at 0.5 μM: 11 min
[5]
  Ki: 0.0725 µM

## Cn1cc(-c2cc(S(C)(=O)=O)ccc2OCCN2CCNC2=O)c2cc[nH]c2c1=O [Example 218, 6-methyl-4-{5-(methylsulfonyl)-2-[2-(2-oxoimidazolidin-1-yl)ethoxy]phenyl}-1,6-dihydro-7H-pyrrolo[2,3-c]pyridin-7-one]
[1]; [6]
  half-life at 0.5 μM: > 120 min
[2]
  half-life at 0.5 μM: > 120 min
[3]
  Ki: 0.0689 µM
[4]; human, microsomes, pH 7.4
  half-life at 0.5 μM: > 120 min
[5]
  Ki: 0.0693 µM

## Cn1cc(-c2cc(S(C)(=O)=O)ccc2Oc2cc(F)c(F)c(F)c2)c2cc[nH]c2c1=O [Example 194, 6-methyl-4-[5-(methylsulfonyl)-2-(3,4,5-trifluorophenoxy)phenyl]-1,6-dihydro-7H-pyrrolo[2,3-c]pyridin-7-one]
[1]; [6]
  half-life at 0.5 μM: 49 min
[2]
  half-life at 0.5 μM: 38 min
[3]
  Ki: 0.0191 µM
[4]; human, microsomes, pH 7.4
  half-life at 0.5 μM: 41 min
[5]
  Ki: 0.0289 µM

## CCS(=O)(=O)Nc1cc(-c2cn(C)c(=O)c3[nH]ccc23)c(Oc2ccc(F)cc2F)cc1C#N [Example 324, N-[2-cyano-4-(2,4-difluorophenoxy)-5-(6-methyl-7-oxo-6,7-dihydro-1H-pyrrolo[2,3-c]pyridin-4-yl)phenyl]ethanesulfonamide]
[1]; [6]
  half-life at 0.5 μM: > 120 min
[2]
  half-life at 0.5 μM: > 120 min
[3]
  Ki: 0.0012 µM
[4]; human, microsomes, pH 7.4
  half-life at 0.5 μM: > 120 min
[5]
  Ki: 0.0032 µM

## Cn1cc(-c2cc(C3=CCNCC3)ccc2OCC2CC2)c2cc[nH]c2c1=O [Example 340, 4-[2-(cyclopropylmethoxy)-5-(1,2,3,6-tetrahydropyridin-4-yl)phenyl]-6-methyl-1,6-dihydro-7H-pyrrolo[2,3-c]pyridin-7-one]
[1]; mouse liver microsomes (male CD1), 0.5 μM test compound, 0.25 mg/mL microsomal protein, pH 7.4, 37° C., read-out: Stability in mouse liver microsomes (t1/2 in minutes)
  half-life at 0.5 μM: 9 min
[2]
  half-life at 0.5 μM: 4 min
[3]
  Ki: 1.25 µM
[4]; human liver microsomes, 0.5 μM test compound, 0.25 mg/mL microsomal protein, pH 7.4, 37° C., read-out: Stability in human liver microsomes (t1/2 in minutes)
  half-life at 0.5 μM: > 120 min
[5]
  Ki: 0.942 µM

## Cc1ccc(F)cc1Oc1ccc(S(C)(=O)=O)cc1-c1cn(C)c(=O)c2[nH]ccc12 [Example 187, 4-[2-(5-fluoro-2-methylphenoxy)-5-(methylsulfonyl)phenyl]-6-methyl-1,6-dihydro-7H-pyrrolo[2,3-c]pyridin-7-one]
[1]; [6]
  half-life at 0.5 μM: 5 min
[2]
  half-life at 0.5 μM: 4 min
[3]
  Ki: 0.0082 µM
[4]; human, microsomes, pH 7.4
  half-life at 0.5 μM: 9 min
[5]
  Ki: 0.0248 µM

## Cn1cc(-c2cc(CC(=O)O)ccc2OCc2ccccc2)c2cc[nH]c2c1=O [Example 35, [4-(benzyloxy)-3-(6-methyl-7-oxo-6,7-dihydro-1H-pyrrolo[2,3-c]pyridin-4-yl)phenyl]acetic acid]
[1]; [6]
  half-life at 0.5 μM: 42 min
[2]
  half-life at 0.5 μM: > 120 min
[3]
  Ki: 1.14 µM
[4]; human, microsomes, pH 7.4
  half-life at 0.5 μM: 37 min
[5]
  Ki: 0.661 µM

## CN1CCCC1CCOc1ccc(S(C)(=O)=O)cc1-c1cn(C)c(=O)c2[nH]ccc12 (stereo not drawn) [Example 225, 6-methyl-4-{2-[2-(1-methylpyrrolidin-2-yl)ethoxy]-5-(methylsulfonyl)phenyl}-1,6-dihydro-7H-pyrrolo[2,3-c]pyridin-7-one]
[1]; [6]
  half-life at 0.5 μM: > 120 min
[2]
  half-life at 0.5 μM: 59 min
[3]
  Ki: 0.845 µM
[4]; human, microsomes, pH 7.4
  half-life at 0.5 μM: 52 min
[5]
  Ki: 0.264 µM

## Cn1cc(-c2cc(S(C)(=O)=O)ccc2OCCN2CCCC2=O)c2cc[nH]c2c1=O [Example 232, 6-methyl-4-{5-(methylsulfonyl)-2-[2-(2-oxopyrrolidin-1-yl)ethoxy]phenyl}-1,6-dihydro-7H-pyrrolo[2,3-c]pyridin-7-one]
[1]; [6]
  half-life at 0.5 μM: > 120 min
[2]
  half-life at 0.5 μM: > 120 min
[3]
  Ki: 0.443 µM
[4]; human, microsomes, pH 7.4
  half-life at 0.5 μM: 57 min
[5]
  Ki: 0.213 µM

## Cn1cc(-c2cc(S(C)(=O)=O)ccc2Oc2cc(F)ccc2F)c2cc[nH]c2c1=O [Example 173, 4-[2-(2,5-difluorophenoxy)-5-(methylsulfonyl)phenyl]-6-methyl-1,6-dihydro-7H-pyrrolo[2,3-c]pyridin-7-one]
[1]; [6]
  half-life at 0.5 μM: 16 min
[2]
  half-life at 0.5 μM: 5 min
[3]
  Ki: 0.0066 µM
[4]; human, microsomes, pH 7.4
  half-life at 0.5 μM: 38 min
[5]
  Ki: 0.0157 µM

## Cn1cc(-c2cc(CN3CCCC3)ccc2OCC2CC2)c2cc[nH]c2c1=O [Example 314, 4-[2-(cyclopropylmethoxy)-5-(pyrrolidin-1-ylmethyl)phenyl]-6-methyl-1,6-dihydro-7H-pyrrolo[2,3-c]pyridin-7-one]
[1]; [6]
  half-life at 0.5 μM: 6 min
[2]
  half-life at 0.5 μM: 4 min
[3]
  Ki: 1.29 µM
[4]; human, microsomes, pH 7.4
  half-life at 0.5 μM: 81 min
[5]
  Ki: 1.6 µM

## CN1CCC[C@H]1COc1ccc(S(C)(=O)=O)cc1-c1cn(C)c(=O)c2[nH]ccc12 [Example 222, 6-methyl-4-[2-{[(2S)-1-methylpyrrolidin-2-yl]methoxy}-5-(methylsulfonyl)phenyl]-1,6-dihydro-7H-pyrrolo[2,3-c]pyridin-7-one]
[1]; [6]
  half-life at 0.5 μM: 98 min
[2]
  half-life at 0.5 μM: 80 min
[3]
  Ki: 0.969 µM
[4]; human, microsomes, pH 7.4
  half-life at 0.5 μM: 65 min
[5]
  Ki: 0.225 µM

## C=C(C)c1cc2c(-c3cc(S(C)(=O)=O)ccc3Oc3ccc(F)cc3F)cn(C)c(=O)c2[nH]1 [Example 291, 4-[2-(2,4-difluorophenoxy)-5-(methylsulfonyl)phenyl]-6-methyl-2-(prop-1-en-2-yl)-1,6-dihydro-7H-pyrrolo[2,3-c]pyridin-7-one]
[1]; [6]
  half-life at 0.5 μM: 16 min
[2]
  half-life at 0.5 μM: 8 min
[3]
  Ki: 0.0237 µM
[4]; human, microsomes, pH 7.4
  half-life at 0.5 μM: 16 min
[5]
  Ki: 0.0329 µM

## Cn1cc(-c2cc(S(C)(=O)=O)ccc2Oc2cc(F)cc(F)c2)c2cc[nH]c2c1=O [Example 176, 4-[2-(3,5-difluorophenoxy)-5-(methylsulfonyl)phenyl]-6-methyl-1,6-dihydro-7H-pyrrolo[2,3-c]pyridin-7-one]
[1]; [6]
  half-life at 0.5 μM: 29 min
[2]
  half-life at 0.5 μM: 8 min
[3]
  Ki: 0.006 µM
[4]; human, microsomes, pH 7.4
  half-life at 0.5 μM: 48 min
[5]
  Ki: 0.0213 µM

## Cn1cc(-c2cc(S(C)(=O)=O)ccc2Oc2ccc3c(c2)CCC3)c2cc[nH]c2c1=O [Example 191, 4-[2-(2,3-dihydro-1H-inden-5-yloxy)-5-(methylsulfonyl)phenyl]-6-methyl-1,6-dihydro-7H-pyrrolo[2,3-c]pyridin-7-one]
[1]; [6]
  half-life at 0.5 μM: 2 min
[2]
  half-life at 0.5 μM: 6 min
[3]
  Ki: 0.0088 µM
[4]; human, microsomes, pH 7.4
  half-life at 0.5 μM: 7 min
[5]
  Ki: 0.0178 µM

## Cn1cc(-c2cc(S(C)(=O)=O)ccc2Oc2cccnc2)c2cc[nH]c2c1=O [Example 190, 6-methyl-4-[5-(methylsulfonyl)-2-(pyridin-3-yloxy)phenyl]-1,6-dihydro-7H-pyrrolo[2,3-c]pyridin-7-one]
[1]; [6]
  half-life at 0.5 μM: 8 min
[2]
  half-life at 0.5 μM: 66 min
[4]; human, microsomes, pH 7.4
  half-life at 0.5 μM: 27 min
